Results taken from the NIST ThermoML archive (doi:10.1016/j.jct.2017.10.013).
“And” between values parts separate entries of the source, which are not always exact repeats. Equal entries are not always repeated.

Experiments:
[1] = for molar entropy: 101.33 kPa, Vacuum adiabatic calorimetry; for Triple point temperature: Adiabatic calorimetry
[2] = molar heat capacity at constant pressure; conditions: 101.33 kPa, Vacuum adiabatic calorimetry

[Ho+3].[Ho+3].[Se-2].[Se-2].[Se-2] [holmium selenide (Ho2Se3)]
Conditions | molar entropy, [1] [J/K/mol] | molar heat capacity at constant pressure, [2]
4.75 K, Crystal 3 | – | 4.433 J/K/mol
5 K, Crystal 3 | 1.64 | 5.229 J/K/mol
5.01 K, Crystal 3 | – | 4.889 J/K/mol
5.32 K, Crystal 3 | – | 7.582 J/K/mol
6.03 K, Crystal 2 | 3.189 | 12 J/K/mol and 11.86 J/K/mol
6.03 K, Crystal 3 | 3.189 | 11.86 J/K/mol and 12 J/K/mol
7 K, Crystal 2 | – | 10.5 J/K/mol
7.23 K, Crystal 2 | – | 9.963 J/K/mol
8 K, Crystal 2 | – | 6.9 J/K/mol
8.62 K, Crystal 2 | – | 9.268 J/K/mol
9 K, Crystal 2 | – | 7.3 J/K/mol
10 K, Crystal 2 | 8.227 | 8.4 J/K/mol
10.31 K, Crystal 2 | – | 9.187 J/K/mol
10.68 K, Crystal 2 | – | 9.794 J/K/mol
11.33 K, Crystal 2 | – | 10.14 J/K/mol
12.42 K, Crystal 2 | – | 11.01 J/K/mol
13.07 K, Crystal 2 | – | 11.54 J/K/mol
14.47 K, Crystal 2 | – | 12.75 J/K/mol
15 K, Crystal 2 | 12.67 | 13.14 J/K/mol
16.86 K, Crystal 2 | – | 14.62 J/K/mol
20 K, Crystal 2 | 17.04 | 17.39 J/K/mol
20.03 K, Crystal 2 | – | 17.51 J/K/mol
22.71 K, Crystal 2 | – | 19.72 J/K/mol
25 K, Crystal 2 | 21.4 | 22.07 J/K/mol
25.13 K, Crystal 2 | – | 22.18 J/K/mol
28.04 K, Crystal 2 | – | 25.54 J/K/mol
30 K, Crystal 2 | 25.92 | 27.86 J/K/mol
31.2 K, Crystal 2 | – | 29.55 J/K/mol
34.35 K, Crystal 2 | – | 34.03 J/K/mol
35 K, Crystal 2 | 30.74 | 34.94 J/K/mol
37.49 K, Crystal 2 | – | 38.79 J/K/mol
40 K, Crystal 2 | 35.91 | 42.81 J/K/mol
40.37 K, Crystal 2 | – | 43.37 J/K/mol
43.16 K, Crystal 2 | – | 48 J/K/mol
45 K, Crystal 2 | 41.42 | 50.85 J/K/mol
46.66 K, Crystal 2 | – | 53.47 J/K/mol
50 K, Crystal 2 | 47.18 | 58.65 J/K/mol
51.18 K, Crystal 2 | – | 60.48 J/K/mol
55.76 K, Crystal 2 | – | 66.98 J/K/mol
59.76 K, Crystal 2 | – | 72.46 J/K/mol
60 K, Crystal 2 | 59.16 | 72.86 J/K/mol
63.99 K, Crystal 2 | – | 77.76 J/K/mol
68.39 K, Crystal 2 | – | 82.55 J/K/mol
70 K, Crystal 2 | 71.3 | 84.33 J/K/mol
72.45 K, Crystal 2 | – | 86.7 J/K/mol
76.57 K, Crystal 2 | – | 90.48 J/K/mol
80 K, Crystal 2 | 83.16 | 93.16 J/K/mol
80.18 K, Crystal 2 | – | 93.23 J/K/mol
85.83 K, Crystal 2 | – | 97.43 J/K/mol
90 K, Crystal 2 | 94.54 | 99.99 J/K/mol
91.8 K, Crystal 2 | – | 101 J/K/mol
97.35 K, Crystal 2 | – | 103.9 J/K/mol
100 K, Crystal 2 | 105.4 | 105.2 J/K/mol
102.86 K, Crystal 2 | – | 106.2 J/K/mol
108.72 K, Crystal 2 | – | 108.5 J/K/mol
110 K, Crystal 2 | 115.6 | 109.2 J/K/mol
114.93 K, Crystal 2 | – | 110.9 J/K/mol
120 K, Crystal 2 | 125.2 | 112.4 J/K/mol
121.18 K, Crystal 2 | – | 112.4 J/K/mol
127.91 K, Crystal 2 | – | 114.2 J/K/mol
130 K, Crystal 2 | 134.3 | 114.8 J/K/mol
135.11 K, Crystal 2 | – | 115.7 J/K/mol
140 K, Crystal 2 | 142.9 | 116.5 J/K/mol
142.05 K, Crystal 2 | – | 116.8 J/K/mol
148.79 K, Crystal 2 | – | 117.9 J/K/mol
150 K, Crystal 2 | 151 | 117.9 J/K/mol
155.35 K, Crystal 2 | – | 118.6 J/K/mol
160 K, Crystal 2 | 158.6 | 119 J/K/mol
161.76 K, Crystal 2 | – | 119.2 J/K/mol
168.04 K, Crystal 2 | – | 119.9 J/K/mol
170 K, Crystal 2 | 165.9 | 119.9 J/K/mol
174.8 K, Crystal 2 | – | 120.3 J/K/mol
180 K, Crystal 2 | 172.7 | 120.8 J/K/mol
182.04 K, Crystal 2 | – | 120.9 J/K/mol
189.15 K, Crystal 2 | – | 121.4 J/K/mol
190 K, Crystal 2 | 179.3 | 121.5 J/K/mol
196.14 K, Crystal 2 | – | 122.1 J/K/mol
200 K, Crystal 2 | 185.5 | 122.1 J/K/mol
203.04 K, Crystal 2 | – | 122.2 J/K/mol
209.83 K, Crystal 2 | – | 122.9 J/K/mol
210 K, Crystal 2 | 191.5 | 122.8 J/K/mol
216.54 K, Crystal 2 | – | 123.2 J/K/mol
217.14 K, Crystal 2 | – | 123.4 J/K/mol
220 K, Crystal 2 | 197.3 | 123.6 J/K/mol
220.38 K, Crystal 2 | – | 123.3 J/K/mol
222.96 K, Crystal 2 | – | 123.9 J/K/mol
223.16 K, Crystal 2 | – | 124 J/K/mol
224.88 K, Crystal 2 | – | 124.3 J/K/mol
226.8 K, Crystal 2 | – | 124.9 J/K/mol
228.4 K, Crystal 1 | 201.9 | 125 J/K/mol and 125.2 J/K/mol
228.4 K, Crystal 2 | 201.9 | 125.2 J/K/mol and 125 J/K/mol
229.68 K, Crystal 1 | – | 124.4 J/K/mol
229.7 K, Crystal 1 | – | 124.4 J/K/mol
230 K, Crystal 1 | 202.8 | 124.3 J/K/mol
230.95 K, Crystal 1 | – | 123.6 J/K/mol
232.22 K, Crystal 1 | – | 122.9 J/K/mol
233.8 K, Crystal 1 | – | 123.6 J/K/mol
235.69 K, Crystal 1 | – | 122.7 J/K/mol
236.16 K, Crystal 1 | – | 123.1 J/K/mol
238.19 K, Crystal 1 | – | 123.1 J/K/mol
240 K, Crystal 1 | 208 | 123.1 J/K/mol
241.31 K, Crystal 1 | – | 123.4 J/K/mol
242.82 K, Crystal 1 | – | 122.7 J/K/mol
244.42 K, Crystal 1 | – | 123.3 J/K/mol
249.67 K, Crystal 1 | – | 123.4 J/K/mol
250 K, Crystal 1 | 213 | 123.4 J/K/mol
256.45 K, Crystal 1 | – | 123.6 J/K/mol
260 K, Crystal 1 | 217.9 | 123.6 J/K/mol
263.41 K, Crystal 1 | – | 123.5 J/K/mol
270 K, Crystal 1 | 222.6 | 123.7 J/K/mol
270.54 K, Crystal 1 | – | 123.7 J/K/mol
274.01 K, Crystal 1 | – | 123.6 J/K/mol
276.98 K, Crystal 1 | – | 124 J/K/mol
280 K, Crystal 1 | 227.1 | 123.8 J/K/mol
280.45 K, Crystal 1 | – | 123.7 J/K/mol
284.65 K, Crystal 1 | – | 124 J/K/mol
289.2 K, Crystal 1 | – | 123.9 J/K/mol
290 K, Crystal 1 | 231.4 | 123.9 J/K/mol
293.71 K, Crystal 1 | – | 123.6 J/K/mol
298.15 K, Crystal 1 | 234.8 | 123.9 J/K/mol
298.18 K, Crystal 1 | – | 123.9 J/K/mol
300 K, Crystal 1 | 235.6 | 123.9 J/K/mol
302 K, Crystal 1 | 236.4 | 123.9 J/K/mol
302.6 K, Crystal 1 | – | 124.2 J/K/mol

[1]
Conditions | Triple point temperature [K]
Crystal 2 | 228.4
Crystal 3 | 6.03
